What was measured:
[1] = target: Glutamate [NMDA] receptor; experiment: Ability to inhibit MK-801 binding to NMDA receptor in the presence of 100 uM of spermidine was determined; type: protein-complex assay
[2] = target: Glutamate [NMDA] receptor; experiment: Ability to inhibit MK-801 binding to the NMDA receptor was determined; type: protein-complex assay

CCN(Cc1cccc(CN(CC)C(=N)N)c1)C(=N)N
IC50 [1]: 75.8 µM | IC50 [2]: 5.1 µM

N=C(N)NCc1cccc(CNC(=N)N)c1
IC50 [1]: 7.09 µM | IC50 [2]: 1.19 µM

CCCN(Cc1cc(CN(CCC)C(=N)N)cc(OC)c1)C(=N)N
IC50 [1]: 55.3 µM | IC50 [2]: 20.6 µM

CCCN(Cc1cccc(CN(CCC)C(=N)N)n1)C(=N)N
IC50 [1]: 95.2 µM | IC50 [2]: 8.62 µM

N=C(N)NCc1cc(CNC(=N)N)cc(OC2CCCCC2)c1
IC50 [1]: 9.88 µM | IC50 [2]: 9.07 µM

N=C(N)NCc1cccc(CNC(=N)N)n1
IC50 [1]: 49.3 µM | IC50 [2]: 4.02 µM

CC(C)CN(Cc1cccc(CN(CC(C)C)C(=N)N)c1)C(=N)N
IC50 [1]: 112 µM | IC50 [2]: 10.8 µM

N=C(N)NCc1cc(CNC(=N)N)cc(NC(=O)c2ccccc2)c1
IC50 [1]: 20.6 µM | IC50 [2]: 4.34 µM

C=CCN(Cc1cccc(CN(CC=C)C(=N)N)c1)C(=N)N
IC50 [1]: 29.8 µM | IC50 [2]: 3.85 µM

COc1cc(CNC(=N)N)cc(CNC(=N)N)c1
IC50 [1]: 5.89 µM | IC50 [2]: 1.3 µM

N=C(N)NCc1cc(CNC(=N)N)cc(-c2ccccc2)c1
IC50 [1]: 15.7 µM | IC50 [2]: 5.14 µM

CCCN(Cc1cccc(CN(CCC)C(=N)N)c1)C(=N)N
IC50 [1]: 12.2 µM | IC50 [2]: 0.58 µM

CC(C)Oc1cc(CNC(=N)N)cc(CNC(=N)N)c1
IC50 [1]: 10.5 µM | IC50 [2]: 2.43 µM

CCCCN(Cc1cccc(CN(CCCC)C(=N)N)c1)C(=N)N
IC50 [1]: 9.27 µM | IC50 [2]: 2.8 µM

N=C(N)N(Cc1ccccc1)Cc1cccc(CN(Cc2ccccc2)C(=N)N)c1
IC50 [1]: 2.23 µM | IC50 [2]: 3.82 µM

CCCN(Cc1cc(O)cc(CN(CCC)C(=N)N)c1)C(=N)N
IC50 [1]: 111 µM | IC50 [2]: 10.6 µM

NC(N)=NCCCCN=C(N)N [ARCAINE]
IC50 [1]: 80 µM | IC50 [2]: 9.13 µM

Reference: ChEMBL document CHEMBL1131272, “Aromatic analogs of arcaine inhibit MK-801 binding to the NMDA receptor” (Bioorg Med Chem Lett, 1998)
